In patent publication US9414901B2, “Drug-eluting stents for adenosine receptor modulation” (Indiana University Research and Technology Corporation, priority 2009, dated 2016):
≈ marks a conversion by molar mass, not a printed value.

Key:
[1] = test system: porcine CSM (coronary artery smooth muscle cells); assay: CSM proliferation/viability by MTT assay on collagen matrix/DPCPX-loaded PU film; assay type: cell-based, Ossabaw pigs; settings: no DPCPX release, day 4
Description: A drug eluting film coated on the cover glass was placed in each well of a 24-well plate for a cell culture study.
Hearts were harvested from Ossabaw pigs. Coronary arteries dissected from the hearts were placed in a physiological buffer. Porcine CSM were enzymatically dispersed from coronary arteries using collagenase solutions. Primary cultured CSM were subcultured at 37° C. with 5% CO2 in DMEM containing 10% fetal bovine serum (FBS). CSM cultured with 80% confluence were used between passage 4 and 10.
The CSM were seeded on the surface of type I collagen that was gelated on the DPCPX-loaded PU film. The DPCPX-loaded PU films with various drug/polymer ratios and pure PU film as a control were placed in 24-well plates. Collagen solution was prepared by mixing eight parts of PURECOL (3 mg/mL) with one part of 10×PBS. The pH of the collagen solution was adjusted to 7.4 by adding 0.01 N HCl and 0.1 M NaOH. […] Subcultured CSM were suspended by trypsinization, counted and seeded on the collagen matrix/DPCPX-loaded PU film in 24 wells. […]
After 4 days, cell proliferation was estimated using an MTT cell growth assay kit (Chemicon International). […] The absorbance was read at 490 nm, which was directly proportional to the number of living cells. The measured absorbance in each treatment group was compared to the percent of control. […]

[2] = test system: porcine CSM; settings: cited from earlier work
[3] = test system: in-stent coronary stenosis in metabolic syndrome pigs; assay: In-stent stenosis by IVUS 4 weeks after coronary stenting; assay type: in vivo, Ossabaw miniature swine; settings: IVUS at 4 weeks
Description: Under angiographic guidance, polymer- and DPCPX-eluting stents were placed in either left circumflex (CFX) or left anterior descending (LAD) artery of anesthetized male Ossabaws by random assignment.
A stainless steel stent deployment was utilized to cause vascular injury, which leads to coronary neointima formation (in-stent stenosis) in lean Ossabaw swine and in Ossabaw swine with metabolic syndrome (also known as pre-diabetes).
Stents were inflated to 1.1× of lumen diameter. The right coronary artery (RC) served as a non-stented control. Pigs were allowed to recover for 4 weeks, then sacrificed, and coronary arteries were harvested for tissue analysis.
In-stent stenosis was quantified as the percent area covered with stenotic lesions in in-stent coronary segments in vivo using intravascular ultrasound (IVUS) right before sacrifice. Percent area in-stent stenosis=Area of Neointima/Area of Original Lumen indicated by stent struts×100.
Bare metal and paclitaxel stents were deployed in coronary arteries of lean and metabolic syndrome (MetS) pigs (n=5/group) with stent:artery ratios at 1.0 (A) and 1.3 (B), *p<0.01. Polymer-coated (Polymer, control) and DPCPX-eluting stents (DPCPX) were deployed concurrently in coronary arteries with stent:artery ratio of 1.1 in lean and MetS pigs (n=5/group, C), *p<0.01. (A-C) IVUS was done 4 weeks after stenting in vivo to evaluate in-stent stenosis. Percent area stenosis of in-stent segments was quantified by IVUS.

[4] = physchem; settings: thermodynamic from solid
[5] = test system: ERK, JNK and PI3K-AKT signaling pathways in CSM; settings: dose-dependent manner; cited from earlier work
[6] = In vitro DPCPX release from coated stents in PBS (HPLC); assay type: physicochemical; settings: stents coated with DPCPX in polymer-1 or polymer-2 (PLGA), 30% and 50% DPCPX/polymer, PBS buffer
Description: The drug elution profiles of the two different sets of PU films were examined instead of expanded state of stents. […] The release rate was slightly accelerated with the increase in the drug/PU ratio on the stent coated at the constant drug density of 1 μg/mm^2 (30%>20%>10% DPCPX/PU ratio).
In the drug release study, 2 mL of PBS buffer was used as a release medium which was replaced with a fresh solution every day. Release profiles may be partially affected by dissolution-limited release in addition to diffusion-limited release. Previous studies used 1.5 mL of medium with addition of 10% ethanol or 1.5 mL of PBS with 0.005% Tween 20 per stent. Addition of ethanol in the release medium removed the solubility limitation, but ethanol affected the release profiles as confirmed in the accelerated release studies; thus, ethanol was not used in this study.
Stainless steel stents were coated with polymer and DPCPX in concentrations that optimized in vitro elution kinetics of DPCPX (FIG. 5). Stents used for in vivo testing were coated with 300 μg DPCPX and 700 μg PLGA ([…]) polymer. A1R selective antagonist-DPCPX was dissolved in THF along with polymer-1 and polymer-2. The solutions were spray coated on stainless steel stents. […] The amounts of released DPCPX were analyzed using HPLC. […]

OC[C@H]1O[C@@H](n2cnc3c(NC4CCCC4)nc(Cl)nc32)[C@H](O)[C@@H]1O [CCPA, 2-Chloro-N-6-cyclopentyladenosine]
CSM viability (MTT), % of first control ([1]; 0.1 μM CCPA): 121.8% | CSM viability (MTT), % of first control ([1]; 10 μM CCPA): 112.2% | DNA synthesis, protein synthesis, and cell number in porcine CSM [2]: increase

CCCn1c(=O)c2[nH]c(C3CCCC3)nc2n(CCC)c1=O [DPCPX, 1,3-dipropyl-8-cyclopentyl xanthine]
decrease in in-stent stenosis ([3]; eluting stent (300 μg DPCPX, 700 μg PLGA) at 1.1 times lumen diameter, vs polymer-coated stent): 53% | solubility at 48 h ([4]; PBS with 0.05% Tween 20, 37 °C, pH 7.4, aqueous with cosolvent or surfactant or cyclodextrin): 1.63 ± 0.08 µg/mL (≈ 5.35 µM) | solubility at 48 h ([4]; PBS, 37 °C, pH 7.4, aqueous buffer): 1.69 ± 0.72 µg/mL (≈ 5.55 µM) | solubility at 48 h ([4]; distilled water, pH adjusted, 37 °C, pH 3, aqueous buffer): ~1.6 µg/mL (≈ 5.26 µM) | solubility at 48 h ([4]; distilled water, pH adjusted, 37 °C, pH 11, aqueous buffer): 38.1 ± 2.3 µg/mL (≈ 125 µM) | solubility at 48 h ([4]; water, 37 °C, pH 7.4, water): 1.62 ± 0.12 µg/mL (≈ 5.32 µM) | adenosine-induced ERK, JNK, and AKT phosphorylation [5]: significantly decreases | period over which release of DPCPX was sustained [6]: ≥ 28 days

CC(=O)O[C@H]1C(=O)[C@@]2(C)[C@H]([C@H](OC(=O)c3ccccc3)[C@]3(O)C[C@H](OC(=O)[C@H](O)[C@@H](NC(=O)c4ccccc4)c4ccccc4)C(C)=C1C3(C)C)[C@]1(OC(C)=O)CO[C@@H]1C[C@@H]2O [Paclitaxel]
decrease in in-stent stenosis ([3]; metabolic syndrome pigs, eluting stent deployed at 1.0 times lumen diameter, vs bare metal stent): 47% | decrease in in-stent stenosis ([3]; metabolic syndrome pigs, eluting stent deployed at 1.3 times lumen diameter, vs bare metal stent): 55%

Nc1ncnc2c1ncn2[C@@H]1O[C@H](CO)[C@@H](O)[C@H]1O [adenosine]
DNA synthesis, protein synthesis, and cell number in porcine CSM [2]: increase
